Positions count from the first letter of the chain named.
Key:
[1] = target: T1, AFB2-IAA19 (yeast two-hybrid) (Arabidopsis thaliana, UniProt O24409+Q9LW29); experiment: yeast two-hybrid, beta-galactosidase reporter; format: cell-based; settings: auxin-dependent association in yeast; low micromolar IAA
T1 construct: LexA DBD-AFB2 and AD-IAA19 fusions in yeast diploids
T1 sequence (Q9LW29 1-575): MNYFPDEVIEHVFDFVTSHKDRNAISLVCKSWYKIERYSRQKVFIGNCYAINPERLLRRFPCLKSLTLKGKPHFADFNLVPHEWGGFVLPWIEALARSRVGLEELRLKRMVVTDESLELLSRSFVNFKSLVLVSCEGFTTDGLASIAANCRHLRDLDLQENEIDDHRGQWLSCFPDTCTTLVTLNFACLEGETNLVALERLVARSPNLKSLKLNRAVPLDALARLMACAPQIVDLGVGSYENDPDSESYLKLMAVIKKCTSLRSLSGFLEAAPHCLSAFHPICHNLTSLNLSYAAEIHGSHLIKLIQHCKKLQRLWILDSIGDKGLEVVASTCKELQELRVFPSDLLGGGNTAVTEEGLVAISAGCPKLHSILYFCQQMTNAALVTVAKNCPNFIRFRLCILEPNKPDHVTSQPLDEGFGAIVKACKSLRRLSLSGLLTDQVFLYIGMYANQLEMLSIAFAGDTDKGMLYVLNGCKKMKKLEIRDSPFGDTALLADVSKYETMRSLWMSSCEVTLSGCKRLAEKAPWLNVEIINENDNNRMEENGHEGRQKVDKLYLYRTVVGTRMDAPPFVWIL
T1 sequence (O24409 1-197): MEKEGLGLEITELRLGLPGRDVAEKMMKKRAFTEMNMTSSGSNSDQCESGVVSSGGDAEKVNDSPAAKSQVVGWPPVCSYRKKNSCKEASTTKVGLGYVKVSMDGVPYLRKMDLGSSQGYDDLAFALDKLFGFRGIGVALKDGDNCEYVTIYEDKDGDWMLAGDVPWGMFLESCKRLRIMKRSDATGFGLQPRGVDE

[2] = target: T2, AFB1-IAA6 (yeast two-hybrid) (Arabidopsis thaliana, UniProt Q38824+Q9ZR12); experiment: yeast two-hybrid, beta-galactosidase reporter; format: cell-based; settings: auxin-dependent association in yeast; low micromolar IAA
T2 construct: gene GRH1; LexA DBD-AFB1 and AD-IAA6 fusions in yeast diploids
T2 sequence (Q9ZR12 1-585): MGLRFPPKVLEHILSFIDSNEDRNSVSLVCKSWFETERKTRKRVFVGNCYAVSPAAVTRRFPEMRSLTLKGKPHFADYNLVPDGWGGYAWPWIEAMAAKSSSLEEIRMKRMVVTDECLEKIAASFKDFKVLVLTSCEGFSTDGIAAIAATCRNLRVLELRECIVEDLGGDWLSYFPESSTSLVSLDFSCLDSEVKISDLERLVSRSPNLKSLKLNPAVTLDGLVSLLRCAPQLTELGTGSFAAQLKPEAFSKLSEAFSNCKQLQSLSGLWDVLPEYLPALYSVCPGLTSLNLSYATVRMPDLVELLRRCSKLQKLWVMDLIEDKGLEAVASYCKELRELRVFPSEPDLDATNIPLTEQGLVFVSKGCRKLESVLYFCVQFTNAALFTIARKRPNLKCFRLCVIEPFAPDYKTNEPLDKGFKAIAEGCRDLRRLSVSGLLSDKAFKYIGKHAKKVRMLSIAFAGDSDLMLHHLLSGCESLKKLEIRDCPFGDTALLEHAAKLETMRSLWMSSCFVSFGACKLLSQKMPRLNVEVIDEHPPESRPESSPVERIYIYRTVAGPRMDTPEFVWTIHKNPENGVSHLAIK
T2 sequence (Q38824 1-189): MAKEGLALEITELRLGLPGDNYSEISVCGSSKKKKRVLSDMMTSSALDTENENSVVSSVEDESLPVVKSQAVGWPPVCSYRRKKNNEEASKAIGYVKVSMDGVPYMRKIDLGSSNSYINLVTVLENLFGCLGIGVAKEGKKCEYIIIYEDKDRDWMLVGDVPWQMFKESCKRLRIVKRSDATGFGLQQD

[3] = target: T3, ASK1-TIR1-IAA6 co-receptor complex (TIR1-IAA6) (Arabidopsis thaliana, UniProt Q38824+Q570C0); experiment: [3H]IAA saturation radioligand binding
T3 construct: ASK1-TIR1 from insect cells (Sf9 or Hi5), purified; IAA6 N-terminally GST-tagged from E. coli, full length; with SKP1-like protein 1A
T3 sequence (Q570C0 1-594): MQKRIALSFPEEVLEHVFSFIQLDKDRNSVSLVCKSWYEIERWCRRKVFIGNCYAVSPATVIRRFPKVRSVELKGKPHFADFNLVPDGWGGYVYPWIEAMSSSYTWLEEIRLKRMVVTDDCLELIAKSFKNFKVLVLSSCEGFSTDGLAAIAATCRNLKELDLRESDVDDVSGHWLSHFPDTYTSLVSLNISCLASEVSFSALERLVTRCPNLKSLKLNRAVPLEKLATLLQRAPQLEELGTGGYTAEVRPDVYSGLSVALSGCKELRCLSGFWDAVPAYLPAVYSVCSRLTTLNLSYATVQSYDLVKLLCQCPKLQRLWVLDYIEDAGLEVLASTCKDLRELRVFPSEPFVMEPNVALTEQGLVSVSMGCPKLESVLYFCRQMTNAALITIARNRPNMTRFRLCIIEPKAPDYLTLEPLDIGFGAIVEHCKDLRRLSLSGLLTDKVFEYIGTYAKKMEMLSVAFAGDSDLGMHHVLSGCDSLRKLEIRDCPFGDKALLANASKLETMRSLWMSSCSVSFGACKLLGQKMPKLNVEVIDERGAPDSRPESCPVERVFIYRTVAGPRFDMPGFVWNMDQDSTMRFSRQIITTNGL
T3 sequence (Q38824 1-189): T2 sequence (Q38824 1-189)
T3 sequence (Q39255 1-160 partner): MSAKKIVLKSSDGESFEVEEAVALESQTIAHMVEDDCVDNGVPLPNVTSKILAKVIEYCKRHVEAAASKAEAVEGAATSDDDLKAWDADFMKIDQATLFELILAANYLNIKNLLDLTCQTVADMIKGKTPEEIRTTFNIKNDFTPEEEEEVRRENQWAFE

[4] = target: T3, ASK1-TIR1-IAA6 co-receptor complex (TIR1-IAA6); experiment: homologous competition radioligand binding
[5] = target: T4, ASK1-TIR1-IAA6 co-receptor complex (TIR1-IAA6) (Arabidopsis thaliana, UniProt Q38824+Q570C0, Q38824:C78R); experiment: one-point [3H]IAA saturation binding; settings: labelled compound; 200 nM [3H]IAA; shy1-1 degron mutant
T4 construct: ASK1-TIR1 from insect cells (Sf9 or Hi5), purified; IAA6 N-terminally GST-tagged from E. coli, full length; with SKP1-like protein 1A
T4 sequence (Q570C0 1-594): T3 sequence (Q570C0 1-594)
T4 sequence (Q38824 1-189 C78R): T2 sequence (Q38824 1-189) with C78R
T4 sequence (Q39255 1-160 partner): T3 sequence (Q39255 1-160 partner)

[6] = target: T5, ASK1-TIR1-IAA19 co-receptor complex (TIR1-IAA19) (Arabidopsis thaliana, UniProt O24409+Q570C0, O24409:P76S); experiment: one-point [3H]IAA saturation binding; settings: labelled compound; 200 nM [3H]IAA; msg2-1 degron mutant
T5 construct: ASK1-TIR1 from insect cells (Sf9 or Hi5), purified; IAA19 N-terminally GST-tagged from E. coli, full length; with SKP1-like protein 1A
T5 sequence (Q570C0 1-594): T3 sequence (Q570C0 1-594)
T5 sequence (O24409 1-197 P76S): T1 sequence (O24409 1-197) with P76S
T5 sequence (Q39255 1-160 partner): T3 sequence (Q39255 1-160 partner)

[7] = target: T6, ASK1-TIR1-IAA19 co-receptor complex (TIR1-IAA19) (Arabidopsis thaliana, UniProt O24409+Q570C0); experiment: homologous competition radioligand binding; settings: unlabelled IAA against 25 nM [3H]IAA
T6 construct: ASK1-TIR1 from insect cells (Sf9 or Hi5), purified; IAA19 N-terminally GST-tagged from E. coli, full length; with SKP1-like protein 1A
T6 sequence (Q570C0 1-594): T3 sequence (Q570C0 1-594)
T6 sequence (O24409 1-197): T1 sequence (O24409 1-197)
T6 sequence (Q39255 1-160 partner): T3 sequence (Q39255 1-160 partner)

[8] = target: T7, AFB2-IAA6 (yeast two-hybrid) (Arabidopsis thaliana, UniProt Q38824+Q9LW29); experiment: yeast two-hybrid, beta-galactosidase reporter; format: cell-based; settings: auxin-dependent association in yeast; low micromolar IAA
T7 construct: LexA DBD-AFB2 and AD-IAA6 fusions in yeast diploids
T7 sequence (Q9LW29 1-575): T1 sequence (Q9LW29 1-575)
T7 sequence (Q38824 1-189): T2 sequence (Q38824 1-189)

[9] = target: T6, ASK1-TIR1-IAA19 co-receptor complex (TIR1-IAA19); experiment: [3H]IAA saturation radioligand binding
[10] = target: T3, ASK1-TIR1-IAA6 co-receptor complex (TIR1-IAA6); experiment: homologous competition radioligand binding; settings: unlabelled IAA against 50 nM [3H]IAA
[11] = target: T8, AFB1-IAA19 (yeast two-hybrid) (Arabidopsis thaliana, UniProt O24409+Q9ZR12); experiment: yeast two-hybrid, beta-galactosidase reporter; format: cell-based; settings: auxin-dependent association in yeast; low micromolar IAA
T8 construct: gene GRH1; LexA DBD-AFB1 and AD-IAA19 fusions in yeast diploids
T8 sequence (Q9ZR12 1-585): T2 sequence (Q9ZR12 1-585)
T8 sequence (O24409 1-197): T1 sequence (O24409 1-197)

[12] = target: T6, ASK1-TIR1-IAA19 co-receptor complex (TIR1-IAA19); experiment: homologous competition radioligand binding

## O=C(O)Cc1c[nH]c2ccccc12 [IAA]
[1]
  yeast two-hybrid, beta-galactosidase reporter: IAA6 and IAA19 interacted in an auxin-dependent manner with TIR1, AFB1 and AFB2
[2]
  yeast two-hybrid, beta-galactosidase reporter: IAA6 and IAA19 interacted in an auxin-dependent manner with TIR1, AFB1 and AFB2
[3]
  Kd: 72 ± 10.5 nM
[4]
  Ki: 99.3 ± 11.9 nM
[5]
  specific binding at 200 nM: IAA6^C78R/shy1-1 and IAA19^P76S/msg2-1 mutants that mimic stabilized version of the proteins affect significantly
[6]
  specific binding at 200 nM: IAA6^C78R/shy1-1 and IAA19^P76S/msg2-1 mutants that mimic stabilized version of the proteins affect significantly
[7]
  IC50: determined IC50 and Ki values for each of the complexes
[8]
  yeast two-hybrid, beta-galactosidase reporter: IAA6 and IAA19 interacted in an auxin-dependent manner with TIR1, AFB1 and AFB2
[9]
  Kd: 15.6 ± 2 nM
[10]
  IC50: determined IC50 and Ki values for each of the complexes
[11]
  yeast two-hybrid, beta-galactosidase reporter: IAA6 and IAA19 interacted in an auxin-dependent manner with TIR1, AFB1 and AFB2
[12]
  Ki: 33.5 ± 3.7 nM

Source: PMC5467235, “Variation in auxin sensing guides AUX/IAA transcriptional repressor ubiquitylation and destruction” (Nature Communications, 2017)
